Patent publication US9206129B2, “Agent for treatment of eye diseases” (Daito Chemix Corporation, priority 2010, dated 2015)
Counter-ions that a name gives are not always drawn.

Tests used:
[1] = target: Mouse VCP (Mus musculus (Mouse), UniProt Q01853); assay: VCP ATPase inhibitory activity; type: biochemical; settings: ATPase activity of purified VCP, 100 μM [γ-32P]ATP, 37° C., 10 minutes
Protocol: Mouse VCP cDNA (the amino acid sequence is completely identical among mouse, rat and human) is added with a DNA sequence corresponding to a histidine tag at the amino-terminal, subcloned into a baculovirus vector pVL1392 (BD Bioscience), and expressed in Sf-9 insect cells. The protein is purified with a nickel column. After the purification the concentration of the protein is adjusted to […] and the protein is stored in a solution containing 50 mM TrisCl pH 8.0, 5 mM EDTA, 10% glycerol, and 15 mM DTT at 4° C. […] The enzyme reaction is stopped with addition of 200 μL of an ice-cold solution containing 7% TCA and 1 mM K2HPO4. […] The reaction tube is centrifuged for 5 minutes at 20,000 g to separate the aqueous layer and the organic layer, 200 μL of the organic layer is taken, and the beta ray radiated from the liberated phosphate is quantified with liquid scintillation counter. By measuring the ATPase activity in the presence of the test substance at various concentrations, ATPase inhibitory activity of the test substance is measured. […]
The ATPase activity was determined as follows. […]
By measuring the ATPase activity in the presence of the test substance at various concentrations, ATPase inhibitory activity of the test substance was measured. […]

[2] = system: DBA/2J mice; assay: Intraocular pressure in DBA/2J mice (TonoLab tonometer); type: in vivo, mouse; settings: 50 mg/kg/day orally
Protocol: As a model of secondary angle-closure glaucoma, the DBA/2J mice (Anderson, M. G. et al; BMC Genetics (2001)) were employed. The mice were administered orally with 50 mg/kg/day of the compound of Synthetic Example 32 or 53 (Compound 32 or 53, respectively) daily after two months of age. The tomographs of retinae (n=22 to 32 eyes) were obtained in the 6, 7, 8, 9 and 10-month-old mice with the optical coherence tomography (OCT) (Multiline OCT, Heidelberg Engineering) (FIGS. 1 and 2: The OCT images of the retinae of the 8-month-old mice, FIG. 3: The evaluation of the optic nerve cupping in the 7 to 10-month-old mice). The mice in the control group were administered orally with the physiological saline. The eyeballs were enucleated at 10 months of age, and retinae were observed after hematoxylin-eosin (HE) staining (FIG. 4: The micrographs of retinae of the […] mice after HE staining). The thickness of the inner retinal layers and the nerve fiber layers was determined from the OCT images (FIG. 5: The thickness of the nerve fiber layers of the 7-month-old mice; FIG. 6: The thickness of the inner retinal layers of the 8-month-old mice; FIG. 7: The time course of the thickness of the inner retinal layers). The thickness of the inner retinal layer is a sum of the thickness of the nerve fiber and ganglion neuron layer and the inner plexiform layer.
Besides, the intraocular pressure was measured with TonoLab (M. E. Technica) tonometer under general anesthesia monthly from 2 months of age. The mean intraocular pressure at 4, 5, 6, 7 and 8 months of age was 13.6, 14.0, 11.3, 16.3 and 12.8 mmHg in the control group administered with the physiological saline, 13.0, 15.6, 12.0, 12.3 and 14.4 mmHg in the group administered with Compound 32, 14.6, 16.0, 12.8, 13.0 and 14.4 mmHg in the group administered with Compound 53.

[3] = system: rd10 mice; assay: rd10 mice, model of retinitis pigmentosa: OCT, electroretinogram, HE-stained retinae; type: in vivo, mouse; settings: 33-day-old rd10 mice, 50 mg/kg/day intraperitoneally
Protocol: As a model of retinitis pigmentosa, the rd10 mice (B6.CXB1-Pde6b^rd10/J (purchased from Jackson Laboratory (Bar Harbor, Me.), Chang B. et al; Vision Res (2007)) were employed. In the mouse model, the rod photoreceptors are completely disappeared within 2 months after birth. The mice were administered intraperitoneally with 50 mg/kg/day of the compound of Synthetic Example 32 or 53 (Compound 32 or 53, respectively) daily from 7 days of age. The tomographs of the retinae were obtained in the 21, 25, 29 and 33-day-old mice with the optical coherence tomography (OCT) (FIGS. 15 and 17: The OCT images of the mice administered with Compound 32 at 25 and 29 days of age; FIGS. 19 and 21: The OCT images of the mice administered with Compound 53 at 25 and 29 days of age). The 21-, 25-, 29- and 33-day-old mice were subjected to dark adaptation and given 3.0 cd/s/m^2 of photic stimulations via a LED-type corneal-contact electrode (Mayo) by LS-W (Mayo). The electroretinogram (ERG) was recorded and analyzed with PowerLab 2/25 (AD Instruments, New South Wales, Australia) to measure the b-wave amplitudes (N=27-37 eyes) (FIGS. 16, 18, 24: The ERG of the 25-, 29- and 33-day-old mice administered with Compound 32; FIGS. 20, 22, 26: The ERG of the 25-, 29- and 33-day-old mice administered with Compound 53). The mice in the control group were administered orally with the physiological saline. […]

Chain of Mouse VCP (Q01853 whole entry): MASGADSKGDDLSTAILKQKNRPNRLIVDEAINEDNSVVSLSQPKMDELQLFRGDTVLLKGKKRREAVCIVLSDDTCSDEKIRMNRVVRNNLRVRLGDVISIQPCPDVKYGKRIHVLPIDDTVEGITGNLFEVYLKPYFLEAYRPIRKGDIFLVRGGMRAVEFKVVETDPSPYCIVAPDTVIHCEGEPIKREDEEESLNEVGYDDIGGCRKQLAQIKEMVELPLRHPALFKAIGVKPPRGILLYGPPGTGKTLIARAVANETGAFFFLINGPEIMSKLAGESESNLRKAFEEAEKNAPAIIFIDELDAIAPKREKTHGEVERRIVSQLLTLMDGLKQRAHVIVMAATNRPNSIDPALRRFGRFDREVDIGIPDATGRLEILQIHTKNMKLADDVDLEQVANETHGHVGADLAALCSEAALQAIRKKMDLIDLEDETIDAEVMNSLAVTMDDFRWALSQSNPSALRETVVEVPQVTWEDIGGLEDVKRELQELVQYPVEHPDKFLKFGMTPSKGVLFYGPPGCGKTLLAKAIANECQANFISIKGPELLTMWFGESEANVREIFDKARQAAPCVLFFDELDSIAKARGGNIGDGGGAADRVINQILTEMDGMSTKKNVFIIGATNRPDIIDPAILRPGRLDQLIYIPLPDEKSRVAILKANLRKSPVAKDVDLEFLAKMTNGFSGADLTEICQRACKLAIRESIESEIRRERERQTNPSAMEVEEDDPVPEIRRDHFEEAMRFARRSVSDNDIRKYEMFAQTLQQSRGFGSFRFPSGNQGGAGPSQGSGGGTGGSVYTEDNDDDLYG

## Nc1c(/N=N/c2ccc(-c3ccccc3OCCCC(=O)O)nc2)cc(S(=O)(=O)O)c2ccccc12 [Example 43, 4-{2-[5-(1-amino-4-sulfonaphthalene-2-ylazo)pyridine-2-yl]phenoxy}butyric acid disodium salt]
[1]
  IC50: 378 nM

## Cc1cc(F)ccc1-c1ccc(/N=N/c2cc(S(=O)(=O)[O-])c3ccccc3c2N)cn1.[Na+] [Example 32, 4-amino-3-[6-(4-fluoro-2-methylphenyl)pyridine-3-ylazo]naphthalene-1-sulfonic acid sodium salt]
[2]; 4 months of age
  mean intraocular pressure: 13.0 mmHg
[2]; 5 months of age
  mean intraocular pressure: 15.6 mmHg
[2]; 6 months of age
  mean intraocular pressure: 12.0 mmHg
[2]; 7 months of age
  mean intraocular pressure: 12.3 mmHg
[2]; 8 months of age
  mean intraocular pressure: 14.4 mmHg
[3]
  layers of the photoreceptor cells in the retinal section: 4 to 5 layers

## CCCCOc1c(C=O)cc(C)cc1-c1ccc(/N=N/c2cc(S(=O)(=O)[O-])c3ccccc3c2N)cn1.[Na+] [Example 53, 4-amino-3-[6-(3-formyl-2-butoxy-5-methylphenyl)pyridine-3-ylazo]naphthalene-1-sulfonic acid sodium salt]
[2]; 4 months of age
  mean intraocular pressure: 14.6 mmHg
[2]; 5 months of age
  mean intraocular pressure: 16.0 mmHg
[2]; 6 months of age
  mean intraocular pressure: 12.8 mmHg
[2]; 7 months of age
  mean intraocular pressure: 13.0 mmHg
[2]; 8 months of age
  mean intraocular pressure: 14.4 mmHg
[3]
  layers of the photoreceptor cells in the retinal section: 4 to 5 layers
